Assay results: PubChem BioAssay AID2060511 (Molecular Pharmacology Branch, DTP, NCI, 2025)

Test system: 422866-222-R5-J1-PDC spheroids with HUVEC/MSC, viability
Assay: Anticancer human tumor 422866-222-R5-J1-PDC patient-derived pancreatic adenocarcinoma cell line growth inhibition [GQUAD]
Conditions: for IC50: curve of first compound; for viability, T/C: stronger effect = lower value
How it was run: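 Multi-cell-type spheroids of tumor cells with HUVEC and mesenchymal stem cells, treated with drug combinations. Concentrations descend in half-log steps from near clinical Cmax, or from 10 microM where Cmax is unknown; viability read-out.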

[1] = second compound 0.0316 µM, first compound 0.0316 µM
[2] = second compound 0.0316 µM, first compound 0.316 µM
[3] = second compound 0.1 µM, first compound 0.0316 µM
[4] = second compound 0.1 µM, first compound 0.316 µM
[5] = second compound 0.316 µM, first compound 0.0316 µM
[6] = second compound 0.316 µM, first compound 0.316 µM
[7] = second compound 1 µM, first compound 0.0316 µM
[8] = second compound 1 µM, first compound 0.316 µM
[9] = second compound 3.16 µM, first compound 0.0316 µM
[10] = second compound 3.16 µM, first compound 0.316 µM
[11] = second compound 10 µM, first compound 0.0316 µM
[12] = second compound 10 µM, first compound 0.316 µM
[13] = second compound 0.0316 µM, first compound 0.000999 µM
[14] = second compound 0.0316 µM, first compound 0.00316 µM
[15] = second compound 0.0316 µM, first compound 0.00999 µM
[16] = second compound 0.0316 µM, first compound 0.0999 µM
[17] = second compound 0.1 µM, first compound 0.000999 µM
[18] = second compound 0.1 µM, first compound 0.00316 µM
[19] = second compound 0.1 µM, first compound 0.00999 µM
[20] = second compound 0.1 µM, first compound 0.0999 µM
[21] = second compound 0.316 µM, first compound 0.000999 µM
[22] = second compound 0.316 µM, first compound 0.00316 µM
[23] = second compound 0.316 µM, first compound 0.00999 µM
[24] = second compound 0.316 µM, first compound 0.0999 µM
[25] = second compound 1 µM, first compound 0.000999 µM
[26] = second compound 1 µM, first compound 0.00316 µM
[27] = second compound 1 µM, first compound 0.00999 µM
[28] = second compound 1 µM, first compound 0.0999 µM
[29] = second compound 3.16 µM, first compound 0.000999 µM
[30] = second compound 3.16 µM, first compound 0.00316 µM
[31] = second compound 3.16 µM, first compound 0.00999 µM
[32] = second compound 3.16 µM, first compound 0.0999 µM
[33] = second compound 10 µM, first compound 0.000999 µM
[34] = second compound 10 µM, first compound 0.00316 µM
[35] = second compound 10 µM, first compound 0.00999 µM
[36] = second compound 10 µM, first compound 0.0999 µM
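Also: spheroids exposed to compounds for seven days before reading.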
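For viability, T/C in this document: percent viability relative to DMSO vehicle control taken as 100%.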

C=CC(=O)N1CCN(c2nc(=O)n(-c3c(C)ccnc3C(C)C)c3nc(-c4c(O)cccc4F)c(F)cc23)C(C)C1 (stereo unspecified) + CN(C)c1ccc(Nc2c3ccc(NC(=O)CCN4CCCC4)cc3nc3cc(NC(=O)CCN4CCCC4)ccc23)cc1
IC50 (second compound 0.0316 µM): < 31.6 nM | IC50 (second compound 0.1 µM): < 31.6 nM | IC50 (second compound 0.316 µM): < 31.6 nM | IC50 (second compound 1 µM): < 31.6 nM | IC50 (second compound 3.16 µM): < 31.6 nM | IC50 (second compound 10 µM): < 31.6 nM | viability, T/C [1]: 39.3% | viability, T/C (second compound 0.0316 µM, first compound 0.1 µM): 32.5% | viability, T/C [2]: 29.6% | viability, T/C (second compound 0.0316 µM, first compound 1 µM): 25.2% | viability, T/C (second compound 0.0316 µM, first compound 3.16 µM): 26.4% | viability, T/C (second compound 0.0316 µM, first compound 10 µM): 30% | viability, T/C [3]: 37.9% | viability, T/C (second compound 0.1 µM, first compound 0.1 µM): 29.4% | viability, T/C [4]: 26.6% | viability, T/C (second compound 0.1 µM, first compound 1 µM): 22.7% | viability, T/C (second compound 0.1 µM, first compound 3.16 µM): 27.3% | viability, T/C (second compound 0.1 µM, first compound 10 µM): 26.4% | viability, T/C [5]: 41.9% | viability, T/C (second compound 0.316 µM, first compound 0.1 µM): 25.2% | viability, T/C [6]: 29.9% | viability, T/C (second compound 0.316 µM, first compound 1 µM): 25.7% | viability, T/C (second compound 0.316 µM, first compound 3.16 µM): 30.7% | viability, T/C (second compound 0.316 µM, first compound 10 µM): 28.7% | viability, T/C [7]: 27.8% | viability, T/C (second compound 1 µM, first compound 0.1 µM): 27.9% | viability, T/C [8]: 25.1% | viability, T/C (second compound 1 µM, first compound 1 µM): 23.9% | viability, T/C (second compound 1 µM, first compound 3.16 µM): 24.7% | viability, T/C (second compound 1 µM, first compound 10 µM): 28% | viability, T/C [9]: 31.2% | viability, T/C (second compound 3.16 µM, first compound 0.1 µM): 25.5% | viability, T/C [10]: 24.3% | viability, T/C (second compound 3.16 µM, first compound 1 µM): 25.3% | viability, T/C (second compound 3.16 µM, first compound 3.16 µM): 25% | viability, T/C (second compound 3.16 µM, first compound 10 µM): 28.3% | viability, T/C [11]: 29.5% | viability, T/C (second compound 10 µM, first compound 0.1 µM): 27.3% | viability, T/C [12]: 25.7% | viability, T/C (second compound 10 µM, first compound 1 µM): 29% | viability, T/C (second compound 10 µM, first compound 3.16 µM): 28.8% | viability, T/C (second compound 10 µM, first compound 10 µM): 29.1%

CC[C@@]1(O)C(=O)OCc2c1cc1n(c2=O)Cc2cc3c(CN(C)C)c(O)ccc3nc2-1 + CN(C)c1ccc(Nc2c3ccc(NC(=O)CCN4CCCC4)cc3nc3cc(NC(=O)CCN4CCCC4)ccc23)cc1
IC50 (second compound 0.0316 µM): 93.9 nM | IC50 (second compound 0.1 µM): > 316 nM | IC50 (second compound 0.316 µM): 89.9 nM | IC50 (second compound 1 µM): 135 nM | IC50 (second compound 3.16 µM): 85.3 nM | IC50 (second compound 10 µM): 175 nM | viability, T/C [13]: 99.1% | viability, T/C [14]: 95.8% | viability, T/C [15]: 96% | viability, T/C [1]: 76% | viability, T/C [16]: 47.3% | viability, T/C [2]: 49.7% | viability, T/C [17]: 87.2% | viability, T/C [18]: 104% | viability, T/C [19]: 98% | viability, T/C [3]: 64.3% | viability, T/C [20]: 50.9% | viability, T/C [4]: 48.7% | viability, T/C [21]: 90.9% | viability, T/C [22]: 78.6% | viability, T/C [23]: 95.2% | viability, T/C [5]: 65.1% | viability, T/C [24]: 48.3% | viability, T/C [6]: 48.6% | viability, T/C [25]: 96.8% | viability, T/C [26]: 92.9% | viability, T/C [27]: 78.6% | viability, T/C [7]: 69.8% | viability, T/C [28]: 56.5% | viability, T/C [8]: 35.8% | viability, T/C [29]: 84.1% | viability, T/C [30]: 79.2% | viability, T/C [31]: 87.8% | viability, T/C [9]: 72.5% | viability, T/C [32]: 46.1% | viability, T/C [10]: 46.7% | viability, T/C [33]: 77.5% | viability, T/C [34]: 96.3% | viability, T/C [35]: 91.8% | viability, T/C [11]: 69.8% | viability, T/C [36]: 61.4% | viability, T/C [12]: 40.3%

CCc1c2c(nc3ccc(O)cc13)-c1cc3c(c(=O)n1C2)COC(=O)[C@]3(O)CC + CN(C)c1ccc(Nc2c3ccc(NC(=O)CCN4CCCC4)cc3nc3cc(NC(=O)CCN4CCCC4)ccc23)cc1
IC50 (second compound 0.0316 µM): 6.8 nM | IC50 (second compound 0.1 µM): 49 nM | IC50 (second compound 0.316 µM): 2.86 nM | IC50 (second compound 1 µM): 2.41 nM | IC50 (second compound 3.16 µM): 110 nM | IC50 (second compound 10 µM): > 316 nM | viability, T/C [13]: 64.9% | viability, T/C [14]: 54.1% | viability, T/C [15]: 46.6% | viability, T/C [1]: 46.7% | viability, T/C [16]: 48% | viability, T/C [2]: 47.1% | viability, T/C [17]: 63.6% | viability, T/C [18]: 46.9% | viability, T/C [19]: 46.7% | viability, T/C [3]: 57.1% | viability, T/C [20]: 57.8% | viability, T/C [4]: 39.2% | viability, T/C [21]: 77.5% | viability, T/C [22]: 47.2% | viability, T/C [23]: 46.4% | viability, T/C [5]: 55.1% | viability, T/C [24]: 50.5% | viability, T/C [6]: 37.3% | viability, T/C [25]: 54% | viability, T/C [26]: 43.4% | viability, T/C [27]: 45.2% | viability, T/C [7]: 57.1% | viability, T/C [28]: 46.8% | viability, T/C [8]: 40.5% | viability, T/C [29]: 58.6% | viability, T/C [30]: 54.3% | viability, T/C [31]: 40.6% | viability, T/C [9]: 48.5% | viability, T/C [32]: 63.6% | viability, T/C [10]: 43.9% | viability, T/C [33]: 58.4% | viability, T/C [34]: 49.7% | viability, T/C [35]: 58.3% | viability, T/C [11]: 50.8% | viability, T/C [36]: 64.5% | viability, T/C [12]: 41%
